Experimental data reported in patent publication EP0297534B1, “Castanospermine esters and glycosides” (MERRELL DOW PHARMACEUTICALS INC., priority 1987, dated 1989).

What was measured:
Lysosomal α-Glucosidase = target: T1, Lysosomal α-Glucosidase (Rattus norvegicus, UniProt Q6P7A9); experiment: Lysosomal α-glucosidase inhibition (p-nitrophenyl-α-D-glucoside hydrolysis); type: biochemical; conditions: partially purified from rat liver, 1 hour preincubation at 37°C, pH 4.2, read-out: IC₅₀ Lysosomal α-Glucosidase
T1 construct: Lysosomal α-glucosidase was isolated and partially purified from rat liver; from tissue; host or cells: rat liver
Description: Lysosomal α-glucosidase was isolated and partially purified from rat liver by the method of Dissous [Anal. Biochem., 116, 35 (1981)] through the ammonium sulfate fractionation steps. Enzyme was incubated with test compound for 1 hour at 37°C prior to the addition of p-nitrophenyl-α-D-glucoside in a final volume of 0.6 ml of 0.1 M sodium acetate, 25 mM potassium chloride, pH 4.2. Mixtures were incubated for an additional 30 minutes at 37°C and then heat inactivated at 90°C. Denatured protein was removed by centrifugation. One ml of 0.1 M sodium carbonate was added to the supernatant fraction and liberated nitrophenol determined by its absorption at 410 nm.

Intestinal Sucrase = target: T2, Intestinal Sucrase (Rattus norvegicus, UniProt P23739); experiment: Intestinal sucrase inhibition (glucose liberated from sucrose); type: biochemical; conditions: crude homogenate from rat intestine; 1 hour preincubation with test compound; sucrose substrate, pH 5.9; read-out: IC₅₀ Intestinal Sucrase
T2 construct: Sucrase was isolated from rat intestine as a crude homogenate; from tissue; host or cells: rat intestine
Description: Sucrase was isolated from rat intestine as a crude homogenate using the salt extraction procedure of Kolinska [Biochem. Biophys. Acta, 284, 235 (1984)]. Incubation mixtures contained 100 µl of enzyme preparation plus test compound and were incubated for 1 hour before the addition of 6.6 µmole sucrose in 100 µl 0.1 M sodium maleate, pH 5.9. The mixtures were incubated an additional 30 minutes and then heat inactivated at 80-100°C for 3 minutes. Denatured protein was removed by centrifugation. Glucose liberated was determined by glucose dehydrogenase reagents (Seragen Diagnostics).

serum glucose elevation = experiment: Sucrose load test: inhibition of serum glucose elevation; type: in vivo, ICR Swiss mice; conditions: for minimal effective dose: Mus musculus, 0.5 h, oral, test compound plus sucrose at 2.0 g/kg, serum glucose at 30 minutes post sucrose, amount needed to significantly inhibit serum glucose elevation; for Duration Of Action: oral test compound 1, 2 or 3 hours before sucrose at 2.0 g/kg, serum glucose 30 minutes post sucrose
Description: The compounds of the present invention were further tested in a sucrose load test to determine their ability to inhibit serum glucose elevation. The procedure can be summarized as follows.
ICR Swiss mice, fasted for 18-20 hours, were orally dosed with test compound plus sucrose at 2.0 g/kg. At 30 minutes post sucrose, the animals were sacrificed and their serum glucose concentrations were determined. […] To test duration of action, mice were orally dosed twice. The initial dose was test compound or vehicle. After 1, 2, or 3 hours, the mice were dosed with sucrose at 2.0 g/kg. After an additional 30 minutes post sucrose, the animals were sacrificed and their serum glucose concentrations were determined. Test compound activity was indicated by a significant difference of serum glucose concentration from the corresponding control. The activity observed can be summarized as follows: TABLE II

T1 sequence (Q6P7A9 70-953): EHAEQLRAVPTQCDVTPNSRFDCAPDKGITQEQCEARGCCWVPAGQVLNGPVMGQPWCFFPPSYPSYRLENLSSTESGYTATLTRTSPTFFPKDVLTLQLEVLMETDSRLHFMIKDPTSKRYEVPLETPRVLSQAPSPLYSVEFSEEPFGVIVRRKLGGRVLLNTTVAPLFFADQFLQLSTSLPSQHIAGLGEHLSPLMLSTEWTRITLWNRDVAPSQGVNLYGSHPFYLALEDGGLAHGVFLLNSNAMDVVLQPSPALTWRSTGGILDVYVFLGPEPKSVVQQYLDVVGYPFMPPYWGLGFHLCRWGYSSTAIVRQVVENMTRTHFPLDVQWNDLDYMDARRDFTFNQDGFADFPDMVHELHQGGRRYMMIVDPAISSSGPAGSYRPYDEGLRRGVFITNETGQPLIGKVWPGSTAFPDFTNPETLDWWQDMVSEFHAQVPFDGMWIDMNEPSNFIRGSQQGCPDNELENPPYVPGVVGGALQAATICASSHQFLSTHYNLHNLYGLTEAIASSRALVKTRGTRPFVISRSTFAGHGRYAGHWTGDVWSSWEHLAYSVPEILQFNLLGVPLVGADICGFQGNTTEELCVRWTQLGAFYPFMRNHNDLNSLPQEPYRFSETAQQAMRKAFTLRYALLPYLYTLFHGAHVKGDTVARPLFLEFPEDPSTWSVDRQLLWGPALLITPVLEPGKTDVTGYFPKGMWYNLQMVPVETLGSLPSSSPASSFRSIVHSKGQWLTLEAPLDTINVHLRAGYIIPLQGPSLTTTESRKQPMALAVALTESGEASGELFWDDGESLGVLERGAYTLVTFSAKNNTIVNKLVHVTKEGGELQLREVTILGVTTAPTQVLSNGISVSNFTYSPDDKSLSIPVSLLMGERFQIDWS
T2 sequence (P23739 whole entry): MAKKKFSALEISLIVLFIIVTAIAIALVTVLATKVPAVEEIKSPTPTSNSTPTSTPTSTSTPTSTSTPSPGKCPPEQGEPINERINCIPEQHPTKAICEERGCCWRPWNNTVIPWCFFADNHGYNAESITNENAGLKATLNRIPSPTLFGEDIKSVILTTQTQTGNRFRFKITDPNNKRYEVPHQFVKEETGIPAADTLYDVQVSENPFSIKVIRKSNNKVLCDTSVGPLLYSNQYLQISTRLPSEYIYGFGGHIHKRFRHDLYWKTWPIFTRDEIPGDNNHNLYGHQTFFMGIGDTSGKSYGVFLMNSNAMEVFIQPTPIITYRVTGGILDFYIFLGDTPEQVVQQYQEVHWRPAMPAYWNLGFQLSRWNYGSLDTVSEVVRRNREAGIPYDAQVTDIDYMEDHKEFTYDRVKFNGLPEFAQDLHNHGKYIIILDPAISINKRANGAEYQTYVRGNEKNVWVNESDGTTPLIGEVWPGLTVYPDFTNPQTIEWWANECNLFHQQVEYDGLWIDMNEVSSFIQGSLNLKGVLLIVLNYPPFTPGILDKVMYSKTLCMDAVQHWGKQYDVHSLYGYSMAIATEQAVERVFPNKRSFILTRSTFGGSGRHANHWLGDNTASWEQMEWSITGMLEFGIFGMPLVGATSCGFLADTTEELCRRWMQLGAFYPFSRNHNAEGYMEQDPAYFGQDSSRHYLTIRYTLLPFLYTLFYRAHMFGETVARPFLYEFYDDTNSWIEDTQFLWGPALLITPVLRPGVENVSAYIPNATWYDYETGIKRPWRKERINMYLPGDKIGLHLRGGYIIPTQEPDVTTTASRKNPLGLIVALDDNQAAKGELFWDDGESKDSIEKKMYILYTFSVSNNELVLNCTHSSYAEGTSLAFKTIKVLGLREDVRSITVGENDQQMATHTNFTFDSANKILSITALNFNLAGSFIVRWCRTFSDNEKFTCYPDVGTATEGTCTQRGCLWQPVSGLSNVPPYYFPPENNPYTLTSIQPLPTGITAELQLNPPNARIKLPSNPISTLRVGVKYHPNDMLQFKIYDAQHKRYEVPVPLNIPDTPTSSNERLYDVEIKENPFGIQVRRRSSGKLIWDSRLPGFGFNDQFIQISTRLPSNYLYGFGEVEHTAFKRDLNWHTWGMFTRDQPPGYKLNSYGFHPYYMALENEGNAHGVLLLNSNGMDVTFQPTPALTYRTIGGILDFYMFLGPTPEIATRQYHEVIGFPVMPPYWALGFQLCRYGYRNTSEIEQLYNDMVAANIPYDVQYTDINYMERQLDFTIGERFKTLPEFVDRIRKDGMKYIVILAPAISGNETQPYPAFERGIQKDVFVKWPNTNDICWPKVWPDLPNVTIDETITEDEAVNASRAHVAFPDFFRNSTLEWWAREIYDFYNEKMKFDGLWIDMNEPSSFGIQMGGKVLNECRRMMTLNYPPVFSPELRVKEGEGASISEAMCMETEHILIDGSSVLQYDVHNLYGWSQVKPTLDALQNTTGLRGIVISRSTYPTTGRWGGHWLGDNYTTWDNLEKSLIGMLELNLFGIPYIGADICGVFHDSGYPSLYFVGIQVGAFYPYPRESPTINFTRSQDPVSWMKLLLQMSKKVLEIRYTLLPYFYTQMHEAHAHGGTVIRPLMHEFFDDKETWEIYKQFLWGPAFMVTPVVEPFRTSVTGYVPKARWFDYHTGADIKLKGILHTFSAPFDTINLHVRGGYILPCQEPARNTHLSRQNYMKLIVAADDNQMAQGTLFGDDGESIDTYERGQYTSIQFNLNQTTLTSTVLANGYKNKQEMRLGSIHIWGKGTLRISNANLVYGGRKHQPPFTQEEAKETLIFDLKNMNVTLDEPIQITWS

Compound | IC50 (Lysosomal α-Glucosidase) [µM] | IC50 (Intestinal Sucrase) [µM] | minimal effective dose (serum glucose elevation) [mg/kg] | Duration Of Action (serum glucose elevation)
CCCC(=O)O[C@H]1[C@H](O)[C@@H](OC(=O)CCC)CN2CC[C@H](O)[C@H]12 [6,8-Dibutyrate, [1S-(1α,6β,7α,8β,8aβ)]-octahydro-1,6,7,8-indolizinetetrol 6,8-dibutanoate] | > 1000 | 0.2 | – | –
COc1ccc(C(=O)O[C@H]2CN3CC[C@H](O)[C@@H]3[C@@H](O)[C@@H]2O)cc1 [6-(4-Methoxybenzoate), (1S-(1α,6β,7α,8β,8aβ)]-octahydro-1,6,7,8-indolizinetetrol 6-(4-methoxybenzoate)] | 1000 | 2 | – | –
Cc1ccc(C(=O)O[C@H]2CN3CC[C@H](O)[C@@H]3[C@@H](O)[C@@H]2O)cc1 [6-(4-Methylbenzoate), [1S-(1α,6β,7α,8β,8aβ)]-octahydro-1,6,7,8-indolizinetetrol 6-(4-methylbenzoate)] | 1000 | 0.3 | – | –
O=C(O[C@H]1CN2CC[C@H](O)[C@@H]2[C@@H](O)[C@@H]1O)c1ccccc1 [6-Benzoate, (1S-(1α,6β,7α,8β,8aβ)]-octahydro-1,6,7,8-indolizinetetrol 6-benzoate] | 800 | 0.08 | 1 | 1 hour hours
O=C(O[C@H]1[C@H](O)[C@H]2[C@@H](O)CCN2C[C@@H]1O)c1ccc(Cl)cc1Cl [7-(2,4-Dichlorobenzoate), [1S-(1α,6β,7α,8β,8aβ)]-octahydro-1,6,7,8-indolizinetetrol 7-(2,4-dichlorobenzoate)] | 100 | 0.4 | 20 | –
O=C(O[C@H]1[C@H](O)[C@H]2[C@@H](O)CCN2C[C@@H]1O)c1ccccc1 [7-Benzoate, [1S-(1α,6β,7α,8β,8aβ)]-octahydro-1,6,7,8-indolizinetetrol 7-benzoate] | 200 | 2 | 5 | –
OC[C@H]1O[C@H](O[C@H]2[C@H](O)[C@@H](O)CN3CC[C@H](O)[C@H]23)[C@H](O)[C@@H](O)[C@@H]1O [8-α-D-Glucopyranoside, 8-O-(α-D-glucopyranosyl)-[1S-(1α,6β,7α,8β,8aβ)]-octahydro-1,6,7,8-indolizinetetrol] | 300 | 0.05 | 1 | ≧3 hours

Further lines, with some results ahead:

IC50 (Lysosomal α-Glucosidase) [µM] | IC50 (Intestinal Sucrase) [µM] | Compound | minimal effective dose (serum glucose elevation) [mg/kg] | Duration Of Action (serum glucose elevation)
> 1000 | 2 | O=C(O[C@H]1[C@H](O)[C@H]2[C@@H](O)CCN2C[C@@H]1OC(=O)c1ccccc1)c1ccccc1 [6,7-Dibenzoate, [1S-(1α,6β,7α,8β,8aβ)]-octahydro-1,6,7,8-indolizinetetrol 6,7-dibenzoate] | 20 | –
> 1000 | 4 | O=C(O[C@H]1[C@H](O)[C@H]2[C@@H](O)CCN2C[C@@H]1OC(=O)c1ccc(F)cc1)c1ccc(F)cc1 [6,7-bis(4-Fluorobenzoate), [1S-(1α,6β,7α,8β,8aβ)]-octahydro-1,6,7,8-indolizinetetrol 6,7-bis(4-fluorobenzoate)] | – | –
4 | 0.2 | O=C(O[C@H]1CN2CC[C@H](O)[C@@H]2[C@@H](O)[C@@H]1O)c1ccc(F)cc1 [6-(4-Fluorobenzoate), [1S-(1α,6β,7α,8β,8aβ)]-octahydro-1,6,7,8-indolizinetetrol 6-(4-fluorobenzoate)] | 5 | –
6 | 0.4 | O=C(O[C@H]1[C@H](O)[C@H]2[C@@H](O)CCN2C[C@@H]1O)c1ccc(F)cc1 [7-(4-Fluorobenzoate), [1S-(1α,6β,7α,8β,8aβ)]-octahydro-1,6,7,8-indolizinetetrol 7-(4-fluorobenzoate)] | 5 | 2 h
